From US8168801B2, “Imidazolium-type ionic oligomers” (The Royal Institution for the Advancement of …, priority 2007, dated 2012)
Where a name gives a salt, the structure may show the parent alone.

Tests used:
[1] = Thermal stability by thermogravimetric analysis (TGA); type: physicochemical; conditions: 25° C. to 550° C. at 20° C./min under nitrogen, then air to 700° C., platinum pan
Procedure: The thermal stability of the imidazolium-type ionic oligomers was measured by thermogravimetric analysis (TGA).^42 The onset decomposing temperatures (ODTs) and residue percentages (RPs) are summarized hereinbelow in Table 1.
General: All reagents were commercially obtained from Aldrich Chemical Co. and were used without further purification unless otherwise noted. Solvents were of reagent grade and, if necessary, were dried by standard procedures. ^1H NMR, ^13C NMR and COSY NMR spectra were acquired using Varian Mercury 300 MHz, 400 MHz and Unity 500 MHz spectrometers respectively, equipped with Sun workstations. The proton chemical shifts were reported in parts per million on the δ scale, referenced to the residual proton resonance in CDCl3 (δ 7.24 ppm) or D2O (δ 4.67 ppm). The carbon chemical shifts were reported in parts per million on the δ scale, internally referenced to the solvent resonance in CDCl3 (δ 77.0 ppm). The proton and carbon assignments were made by standard gCOSY experiments. Melting points were taken using a standard melting point apparatus without correcting the thermometer. High resolution mass spectrometric analyses were performed on a VG Micromass ZAB 2F HS (FAB) or a Microm as Quattro II triple quadrupole mass spectrometer (Manchester, UK) equipped with an electrospray ionization source (ESI). Typically only the ion corresponding to the cation (C) component was analyzed. Thermogravimetric analysis (TGA) measurements were performed on a TGA Q500 from TA instruments. The running method used was ramped from 25° C. to 550° C., 20° C./min, under nitrogen, switching to air and then ramped at 20° C./min to 700° C. The type of pan used was platinum. High-pressure liquid chromatography (HPLC) analyses were performed using a reverse phase C18 column (Agilent Zorbax Extend-C18). The elution was performed using a linear gradient from 50% to 100% of B in A over 20 min, followed by a linear gradient elution from 100% to 50% of B in A over 10 min, where A is H2O/0.05% TFA (v/v) and B is CH3CN/0.05% TFA (v/v), at a flow rate of 0.8 mL/min. The eluted compounds were detected by UV absorbance at 210 nm. […]

[2] = Moisture affinity (absorption of moisture from the atmosphere); type: physicochemical

SMILES | melting point [°C] | Onset decomposing temperature (ODT) [1] [°C] | Residue percentage (RP) [1] [%] | Absorption of moisture from the atmosphere [2]
Cc1nccn1CCC[n+]1ccn(C)c1C (as salt: triflate) [Compound 4] | 120 to 122 |  |  | 
Cc1nccn1C [Compound 1, 1,2-dimethylimidazole, reference compound] |  | 80.6 | 0.18 | 
Cc1n(C)cc[n+]1CCCBr (as salt: bromide) [Compound 2] | 96 to 98 |  |  | 
Cc1nccn1CCC[n+]1ccn(C)c1C (as salt: bromide) [Compound 3] | 159 to 161 |  |  | 
Cc1nccn1CCC[n+]1ccn(C)c1C [Compound 4] |  | 293.9 | 1.71 | significantly slower rate than compound 2
Cc1n(C)cc[n+]1CCCBr [Compound 2] |  | 215.8 | 0.10 | 
Cc1n(C)cc[n+]1CCCn1cc[n+](CCCBr)c1C [Compound 5] |  | 239.4 | 0.59 | 
Cc1nccn1CCC[n+]1ccn(C)c1C [Compound 3] |  | 287.8 | 1.53 | significantly slower rate than compound 2
Cc1n(C)cc[n+]1CCCn1cc[n+](CCCBr)c1C (as salt: triflate) [Compound 5] | 76 to 78 |  |  | 

The next lines start with results.

melting point [°C] | Onset decomposing temperature (ODT) [1] [°C] | Residue percentage (RP) [1] [%] | SMILES | Absorption of moisture from the atmosphere [2]
201 to 203 |  |  | Cc1n(C)cc[n+]1CCCn1cc[n+](CCCBr)c1C (as salt: bromide) [Compound 9] | 
84 to 86 |  |  | Cc1n(C)cc[n+]1CCCn1cc[n+](CCCBr)c1C (as salt: triflate) [Compound 10] | 
 | 277.8 | 0.50 | Cc1n(C)cc[n+]1CCCn1cc[n+](CCCBr)c1C [Compound 10] | 
107 to 109 | 326.2 | 1.76 | Cc1nccn1CCC[n+]1ccn(CCC[n+]2ccn(C)c2C)c1C [Compound 11] | did substantially not absorb moisture
121 to 123 | 329.6 | 1.38 | Cc1nccn1CCC[n+]1ccn(CCC[n+]2ccn(C)c2C)c1C [Compound 6] | did substantially not absorb moisture
 | 212.2 | 1.89 | Cc1n(C)cc[n+]1CCCn1cc[n+](CCCBr)c1C [Compound 9] | 
